Measured values published in patent US12606561B2, “Substituted pyrazolo[1,5-a][1,3,5]triazines as CDK inhibitors” (QURIENT CO., LTD., priority 2018, dated 2026).

Columns and labels:
[1] = target: T1, CDK7/Cyclin H/MNAT1 (Homo sapiens, UniProt P50613); test: Enzymatic assay for CDK7 (LANCE Ultra kinase assay, FRET based); format: biochemical; conditions: for IC50: ATP at Km
T1 construct: purchased Invitrogen PR6749B
How it was run: (§1)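 Purified CDK7/Cyclin H/MNAT1 or CDK1/Cyclin B complexes were tested for inhibition at Km ATP. Phosphorylation of a ULight-labelled peptide was detected by FRET with a Europium anti-phospho antibody (LANCE Ultra).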

[2] = tested on: OVCAR-3; test: OVCAR-3 viability assay (CellTiter-Glo, 72 hours); format: cell-based; conditions: Homo sapiens; OVCAR-3 cells
How it was run: (§2)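 CellTiter-Glo luminescence measured viability after 72 h of compound exposure (0.0015–10 uM; DMSO below 0.1%) at 37 °C, 5% CO2, run in duplicate. Dosing began 24 h post-seeding in RPMI-1640/10% FBS at 1×10^4 (MV4-11), 5×10^3 (OVCAR-3) or 1×10^3 (A2780) cells/well.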

[3] = tested on: A2780; test: A2780 viability assay (CellTiter-Glo, 72 hours); format: cell-based; conditions: Homo sapiens; A2780 cells
How it was run: as §2

[4] = target: T2, CDK1/Cyclin B (Homo sapiens, UniProt P06493); test: Enzymatic assay for CDK1 (LANCE Ultra kinase assay, FRET based); format: biochemical; conditions: ATP at Km; read-out: CDK1 enzymatic activity IC50
T2 construct: purchased Invitrogen PR4768C
T2 sequence (P06493 whole entry): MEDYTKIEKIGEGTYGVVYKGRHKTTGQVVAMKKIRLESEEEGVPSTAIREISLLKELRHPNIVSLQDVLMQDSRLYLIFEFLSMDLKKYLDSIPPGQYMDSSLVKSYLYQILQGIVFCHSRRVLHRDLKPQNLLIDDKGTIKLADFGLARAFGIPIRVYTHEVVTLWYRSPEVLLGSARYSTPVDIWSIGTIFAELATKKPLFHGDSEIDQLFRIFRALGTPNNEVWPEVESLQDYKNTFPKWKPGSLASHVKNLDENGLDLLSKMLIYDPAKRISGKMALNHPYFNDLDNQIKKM
T2 sequence (P14635 whole entry partner): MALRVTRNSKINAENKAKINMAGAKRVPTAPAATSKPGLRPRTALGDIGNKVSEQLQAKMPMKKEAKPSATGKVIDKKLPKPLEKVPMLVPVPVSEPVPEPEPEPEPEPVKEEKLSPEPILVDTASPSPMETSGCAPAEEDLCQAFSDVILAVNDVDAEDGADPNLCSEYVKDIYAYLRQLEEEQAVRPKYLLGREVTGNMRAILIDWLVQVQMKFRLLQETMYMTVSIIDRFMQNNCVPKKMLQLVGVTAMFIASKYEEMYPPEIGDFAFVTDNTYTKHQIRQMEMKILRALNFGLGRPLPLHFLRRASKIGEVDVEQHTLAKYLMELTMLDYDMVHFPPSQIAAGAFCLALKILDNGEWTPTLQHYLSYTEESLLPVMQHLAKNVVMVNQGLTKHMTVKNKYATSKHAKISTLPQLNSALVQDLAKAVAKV
How it was run: as §1

[5] = target: T3, CDK5/p25 (Homo sapiens, UniProt Q00535); test: Enzymatic assay for CDK5 (LANCE Ultra kinase assay, FRET based); format: biochemical; conditions: ATP at Km
T3 construct: purchased Invitrogen PR8543B
T3 sequence (Q00535 whole entry): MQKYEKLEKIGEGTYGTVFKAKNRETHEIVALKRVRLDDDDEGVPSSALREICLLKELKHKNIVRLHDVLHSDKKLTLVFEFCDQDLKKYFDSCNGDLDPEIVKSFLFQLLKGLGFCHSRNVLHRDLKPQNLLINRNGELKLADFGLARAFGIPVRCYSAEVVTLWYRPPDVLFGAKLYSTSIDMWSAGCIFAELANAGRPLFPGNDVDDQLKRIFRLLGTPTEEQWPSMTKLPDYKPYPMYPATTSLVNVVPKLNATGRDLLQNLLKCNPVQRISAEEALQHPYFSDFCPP
T3 sequence (Q15078 99-307 partner limits assumed): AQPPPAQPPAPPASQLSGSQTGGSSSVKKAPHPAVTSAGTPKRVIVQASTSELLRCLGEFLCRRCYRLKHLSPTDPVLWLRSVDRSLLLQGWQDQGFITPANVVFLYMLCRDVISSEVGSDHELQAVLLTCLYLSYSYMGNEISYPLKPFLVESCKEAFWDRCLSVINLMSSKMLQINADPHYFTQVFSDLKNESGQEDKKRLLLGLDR
How it was run: (§3)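 Inhibition was measured at ATP Km with 68 nM ULight-MBP peptide and CDK2/Cyclin A ([…]) or CDK5/p25 ([…]), using 8-dose 4-fold compound dilutions from DMSO. Kinase reaction ran 60 min at 23° C, then Eu anti-phospho-MBP plus EDTA were added for another 60 min before the fluorescence read.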

[6] = target: T4, CDK2/Cyclin A (Homo sapiens, UniProt P24941); test: Enzymatic assay for CDK2 (LANCE Ultra kinase assay, FRET based); format: biochemical; conditions: ATP at Km
T4 construct: purchased Invitrogen PV6290
How it was run: as §3

T1 sequence (P50613 whole entry): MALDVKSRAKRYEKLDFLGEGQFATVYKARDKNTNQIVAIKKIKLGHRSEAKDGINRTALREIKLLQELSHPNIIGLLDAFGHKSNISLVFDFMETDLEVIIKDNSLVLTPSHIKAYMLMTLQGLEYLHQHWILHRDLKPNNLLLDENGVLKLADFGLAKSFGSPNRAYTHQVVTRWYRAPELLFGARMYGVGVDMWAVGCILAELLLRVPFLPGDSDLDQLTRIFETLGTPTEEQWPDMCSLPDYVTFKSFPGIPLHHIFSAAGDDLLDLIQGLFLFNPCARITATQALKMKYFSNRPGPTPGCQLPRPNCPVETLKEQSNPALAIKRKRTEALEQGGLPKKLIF
T1 sequence (P51946 whole entry partner): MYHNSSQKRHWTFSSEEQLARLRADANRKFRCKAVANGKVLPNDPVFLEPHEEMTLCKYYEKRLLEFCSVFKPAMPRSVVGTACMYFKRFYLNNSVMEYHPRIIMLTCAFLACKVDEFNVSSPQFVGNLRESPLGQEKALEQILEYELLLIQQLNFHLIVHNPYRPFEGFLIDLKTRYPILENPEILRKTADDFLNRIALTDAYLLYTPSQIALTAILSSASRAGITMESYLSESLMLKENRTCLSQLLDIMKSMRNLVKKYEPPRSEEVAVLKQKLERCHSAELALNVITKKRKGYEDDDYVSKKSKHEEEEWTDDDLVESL
T1 sequence (P51948 whole entry partner): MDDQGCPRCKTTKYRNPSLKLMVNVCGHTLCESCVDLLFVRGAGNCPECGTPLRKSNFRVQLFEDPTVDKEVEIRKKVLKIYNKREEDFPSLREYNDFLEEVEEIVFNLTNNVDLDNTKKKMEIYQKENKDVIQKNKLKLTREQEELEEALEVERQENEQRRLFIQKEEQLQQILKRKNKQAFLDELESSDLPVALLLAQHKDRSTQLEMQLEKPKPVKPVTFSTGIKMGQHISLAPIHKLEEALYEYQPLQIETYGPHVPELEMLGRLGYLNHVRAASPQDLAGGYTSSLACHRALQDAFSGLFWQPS

Structure (SMILES)	IC50 [1] [nM]	CDK1/CDK7: Selectivity of CDK7 inhibition over CDK1 inhibition [1]	CDK2/CDK7: Selectivity of CDK7 inhibition over CDK2 inhibition [1]	CDK5/CDK7: Selectivity of CDK7 inhibition over CDK5 inhibition [1]	IC50 [2] [nM]	IC50 [3] [nM]	IC50 [4] [nM]	IC50 [5] [nM]	IC50 [6] [nM]
C=CC(=O)Nc1ccc2c(-c3ccccc3CNc3cc(N[C@H]4CC[C@H](OC)CC4)nc4c(C(C)C)cnn34)nccc2c1 [Compound 116]	< 100	A (A indicates [fold] > 500)	A (A indicates [fold] > 500)	A (A indicates [fold] > 500)	< 1000	< 1000	> 1000	> 1000	> 1000
CC(C)c1cnn2c(NCc3ccccc3-c3nccc4cc(NC(=O)/C=C/CN(C)C)ccc34)nc(N3CCC4(CCOC4)CC3)nc12 [Compound 117]	100 to 1000	B (B indicates 50 < [fold] ≤ 500)	B (B indicates 50 < [fold] ≤ 500)	B (B indicates 50 < [fold] ≤ 500)	< 1000	< 1000	> 1000	> 1000	> 1000
C=CC(=O)Nc1ccc2c(-c3ccccc3CNc3cc(N4C5CCC4CC(OC)C5)nc4c(C(C)C)cnn34)nccc2c1 (stereo not drawn) [Compound 119]	100 to 1000	B (B indicates 50 < [fold] ≤ 500)	B (B indicates 50 < [fold] ≤ 500)	B (B indicates 50 < [fold] ≤ 500)	< 1000	< 1000	> 1000	> 1000	> 1000
CC(C)c1cnn2c(NCc3ccccc3-c3nccc4cc(NC(=O)/C=C/CN(C)C)ccc34)nc(N3CCOC4(CCN(C)CC4)C3)nc12 [Compound 120]	< 100	A (A indicates [fold] > 500)	A (A indicates [fold] > 500)	A (A indicates [fold] > 500)	< 1000	< 1000	> 1000	> 1000	> 1000
CC(C)c1cnn2c(NCc3ccccc3-c3nccc4cc(NC(=O)/C=C/CN(C)C)ccc34)nc(OC3CC4CCC(C3)N4C)nc12 (stereo not drawn) [Compound 122]	< 100	A (A indicates [fold] > 500)	A (A indicates [fold] > 500)	A (A indicates [fold] > 500)	< 1000	< 1000	> 1000	> 1000	> 1000
CC(C)c1cnn2c(NCc3ccccc3-c3nccc4cc(NC(=O)/C=C/CN(C)C)ccc34)nc(N3CC4CCC(C3)N4C)nc12 [Compound 123]	< 100	A (A indicates [fold] > 500)	A (A indicates [fold] > 500)	A (A indicates [fold] > 500)	< 1000	< 1000	> 1000	> 1000	> 1000
CC(C)c1cnn2c(NCc3ccccc3-c3nccc4cc(NC(=O)/C=C/CN(C)C)ccc34)cc(N3CCC4(CC3)OCCO4)nc12 [Compound 124]	< 100	B (B indicates 50 < [fold] ≤ 500)	B (B indicates 50 < [fold] ≤ 500)	B (B indicates 50 < [fold] ≤ 500)	< 1000	< 1000	> 1000	> 1000	> 1000
COC1CC2CCC(C1)N2c1cc(NCc2ccccc2-c2nccc3cc(NC(=O)/C=C/CN(C)C)ccc23)n2ncc(C(C)C)c2n1 (stereo not drawn) [Compound 125]	100 to 1000	B (B indicates 50 < [fold] ≤ 500)	B (B indicates 50 < [fold] ≤ 500)	B (B indicates 50 < [fold] ≤ 500)	< 1000	< 1000	> 1000	> 1000	> 1000
CC(C)c1cnn2c(NCc3ccccc3-c3nccc4cc(NC(=O)/C=C/CN(C)C)ccc34)nc(N3CCC(S(=O)(=O)N(C)C)CC3)nc12 [Compound 126]	100 to 1000	B (B indicates 50 < [fold] ≤ 500)	B (B indicates 50 < [fold] ≤ 500)	B (B indicates 50 < [fold] ≤ 500)	< 1000	< 1000	> 1000	> 1000	> 1000

Further lines, results first:

IC50 [1] [nM]	CDK1/CDK7: Selectivity of CDK7 inhibition over CDK1 inhibition [1]	CDK2/CDK7: Selectivity of CDK7 inhibition over CDK2 inhibition [1]	CDK5/CDK7: Selectivity of CDK7 inhibition over CDK5 inhibition [1]	IC50 [2] [nM]	IC50 [3] [nM]	IC50 [4] [nM]	IC50 [5] [nM]	IC50 [6] [nM]	Structure (SMILES)
100 to 1000	B (B indicates 50 < [fold] ≤ 500)	B (B indicates 50 < [fold] ≤ 500)	B (B indicates 50 < [fold] ≤ 500)	1000 to 10000	< 1000	> 1000	> 1000	> 1000	CC(C)c1cnn2c(NCc3ccccc3-c3nccc4cc(NC(=O)/C=C/CN(C)C)ccc34)nc(N3CCCC4(CC3)OCCO4)nc12 [Compound 115]
< 100	A (A indicates [fold] > 500)	A (A indicates [fold] > 500)	A (A indicates [fold] > 500)	< 1000	< 1000	> 1000	> 1000	> 1000	C=CC(=O)Nc1ccc2c(-c3ccccc3CNc3cc(N4CCC5(CC4)OCCO5)nc4c(C(C)C)cnn34)nccc2c1 [Compound 118]
< 100	B (B indicates 50 < [fold] ≤ 500)	B (B indicates 50 < [fold] ≤ 500)	B (B indicates 50 < [fold] ≤ 500)	< 1000	< 1000	> 1000	> 1000	> 1000	CC(C)c1cnn2c(NCc3ccccc3-c3nccc4cc(NC(=O)/C=C/CN(C)C)ccc34)nc(N3CCC4(CCN(C)C4)CC3)nc12 [Compound 121]
100 to 1000	B (B indicates 50 < [fold] ≤ 500)	B (B indicates 50 < [fold] ≤ 500)	B (B indicates 50 < [fold] ≤ 500)	< 1000	< 1000	> 1000	> 1000	> 1000	CO[C@H]1CC[C@H](Nc2nc(NCc3c(C)cccc3-c3ccc4cccc(NC(=O)/C=C/CN(C)C)c4n3)n3ncc(C(C)C)c3n2)CC1 [Compound 127]
< 100	A (A indicates [fold] > 500)	A (A indicates [fold] > 500)	A (A indicates [fold] > 500)	< 1000	< 1000	> 1000	> 1000	> 1000	CC(C)c1cnn2c(NCc3ccccc3-c3nccc4cc(NC(=O)/C=C/CN(C)C)ccc34)nc(N3CCC4(CCN(C)CC4)CC3)nc12 [Compound 128]
